The text below walks through data of US20250032446A1, “METHODS AND COMPOSITIONS FOR THE BIOSYNTHESIS AND USE OF DEMETHYLATED POLYMETHOXY FLAVONES” (RUTGERS, THE STATE UNIVERSITY OF NEW JERSEY, priority 2021, published 2025).

What all share (assay type): cell-based, mouse
Data set [1] in a line: MTT assay, post-confluent cells (mitotic clonal expansion). The conditions noted are these: mouse, post-confluent 3T3-L1 cells, percent of control, read-out: cell viability. The procedure: (§1) 3T3-L1 cells were seeded on 96-well plate at density of 1×10^4 cells/well and incubated overnight for cell attachment. For measuring pre-confluent cell proliferation, cells were cultivated for 36 hours and full MEME with or without nobiletin or M67N was used. For measuring post-confluent cell proliferation during first three days of differentiation, cells were switched to DM with different concentrations of nobiletin or M67N for 72 hours. At the end of each treatment, cells were washed with PBS three times. MTT ([…]) was added at concentration of 0.5 mg/mL to the cells. After a 3-hour incubation, the medium was decanted from each well and 150 μL DMSO was added to dissolve the formed formazan crystals on a shaker. When the crystal was completely dissolved, the absorbance at 570 nm was measured. Cell viability was interpreted as the percentage (%) of the readout of treated cells divided by that of control. Six repeats were carried out for each concentration.
(§2) 3T3-L1 cells were seeded on 96-well plate at density of 1×10^4 cells/well and were incubated overnight for cell attachment. For measuring pre-confluent cell proliferation, full MEME with or without nobiletin or 6-OH-nobiletin, or 7-OH-nobiletin was used and cells were cultivated for 36 hours. For measuring post-confluent cell proliferation during the first three days of differentiation, cells were treated after 2 days of confluence. Specifically, cells were switched to differentiation medium (DM) with different concentrations of targeted compounds for 24 hours. At the end of each treatment, cells were washed with PBS three times followed by the addition of 100 μL MTT at concentration of 0.5 mg/mL. After 3 hours' incubation, the medium in each well were decanted while 150 μL DMSO was added to dissolve the formed formazan crystals at a shaker. When the crystals were completely dissolved, the absorbance of at 590 nm was measured. Cell viability was interpreted as the percentage (%) of the readout of treated cells divided by that of control. Five repeats were carried out for each concentration.
For orientation: Formazan colour is commonly taken as a measure of viable cells.

The subject of data set [2] is post-confluent 3T3-L1 cells. The description is as above. Conditions: 5 μM to 25 μM. The procedure: as §1, §2
A further data set deals with AMPK. Description: Immunoblotting, AMPK and p-AMPK. The conditions noted are these: early and terminal differentiation processes. Here is the method:
(§3) Primary antibodies which include AMPK-amAb, and Phospho-AMPKa(p-AMPKa) (Thr172) mAb, Acetyl-CoA Carboxylase (ACC) mAb, fatty acid synthase mAb RAs-related Nuclear protein (Ran) pAb, PPARc mAb, and C/EBPa pAb were all obtained from Cell Signaling Technology (Danvers, MA, USA). They were diluted by 1000 times for immunoblotting analyses.
(§4) At day 3 or day 8, cells are harvested with scraper and homogenized with lysis buffer containing 0.5 mM PMSF, 1 mM mini-complete protease inhibitor cocktail (Sigma, St. Louis, MO, USA) and phosphatase inhibitor cocktail (Sigma, St. Louis, MO, USA). Lysates are syringed with 26 gauge ½ in. needles on ice and then applied for centrifugation at 14,000g for 15 min at 4° C. Protein concentration of cell lysates are determined by using Protein and Protein Broad Range (BR) Assay Kits (Thermofisher, Waltham, MA USA) according to the venture's protocol. Lysates are then stored at −80° C. or immediately are subjected to sodium dodecyl sulfate polyacrylamide gel electrophoresis (SDS-PAGE). For the SDS-PAGE, cell lysates are mixed with loading buffer and heated at 95° C. for 5 min prior to electrophoresis. […] Quantification is performed by measuring band intensity using ImageJ software and calculating the ratio of protein of interesting to RAN the internal loading control.
For orientation: Immunoblotting shows a protein as a band on a membrane.

Another data set deals with FAS. Briefly: Immunoblotting, FAS expression. The conditions noted are these: late phase treatment group, day 8. Here is the method:
as §3, §4

The subject of another data set is C/EBPα. Briefly: Immunoblotting, C/EBPα expression. The conditions noted are these: early treatment, day 3. Here is the method: as §3, §4
A short description of data set [3]: MTT assay, pre-confluent cell proliferation. Conditions: mouse, pre-confluent 3T3-L1 preadipocytes, percent of control. The procedure:
3T3-L1 cells were purchased from American Type Culture Collection (ATCC, Rockville, MD) and maintained in MEME media with 10% FBS 1% penicillin/streptomycin (GIBCO, Paisley, UK) in a humidified atmosphere of 5% CO2 in air at 37° C. Cells were passaged by using 0.05% (vol) Trypsin and replated in 55-cm^2 dishes at a density of 1*10^4 cells/cm^2 until confluence.
For treatment, nobiletin and the mixture of 6- and 7-OH-nobiletin (M67N) in a 1:49 ratio were first dissolved in dimethyl sulphoxide (DMSO) to make stock solution (5 mM to 100 mM). (FIG. 20) The stock solution was then diluted by 1000 times with culture medium to designated concentrations. Cells cultured in full DMEM was set as negative control while cells treated with DM with 0.1% DMSO as positive control.
as §1, §2

By viability is commonly meant the share of living cells, or the viability signal relative to a control. Take `COc1ccc(-c2cc(=O)c3c(OC)c(O)c(OC)c(OC)c3o2)cc1OC` [6-OH-nobiletin, 6-hydroxy-5,7,8,3′,4′-pentamethoxyflavone]: the viability at 24 h, 35 µM in data set [1] (35 μM) is 83.1 ± 6.2%. The viability at 24 h, 50 µM in data set [1] (50 μM) is 85.6 ± 5.3%. Also, the “change of cell viability” value in data set [2] is “no significant difference”. For the same compound, the “expression and phosphorylation of AMPK” value in the data set on AMPK is “greatly enhanced”. Moreover, the “expression of FAS” value in the data set with FAS was “significantly suppressed their expression”. Also, the “production of C/EBPα” value in the data set with C/EBPα is “greatly reduced”. In data set [3] (75 μM), this compound had a viability at 36 h, 75 µM of about 82%. The same compound came in with a viability at 36 h, 100 µM in data set [3] (100 μM) of about 65%.
